According to patent US4732977A, “Carbapenem antibiotics” (priority 1986, dated 1988):
Converted amounts (≈) assume the structure as drawn. Counter-ions that a name gives are not always drawn. Like-named read-outs stand apart in the source and are kept apart here.

Key:
[1] = Urinary recovery after intramuscular administration to mice; type: in vivo; settings: mouse, urine, im, 20 mg/kg, 20 mg/kg i.m.
From the text: | a single test; 4 mice per compound.

B. fragilis A22862 = experiment: M.I.C., tube dilution; type: cell-based; settings: Bacteroides fragilis, overnight incubation at 37° C., Nutrient Broth
P. aeruginosa A-20599 = experiment: Protective effect in intramuscular treatment of infected mice; type: in vivo; settings: Pseudomonas aeruginosa, A20599, im, i.m. 0 and 2 h postinfection, challenge 1.4 × 10^5 organisms, * = historical data, read-out: PD50/Treatment
S. faecalis A20688 = experiment: M.I.C., tube dilution; type: cell-based; settings: Enterococcus faecalis, A20688, overnight incubation at 37° C., Nutrient Broth; read-out: MIC
[2] = Toxicity after intracranial administration to mice; settings: mouse, in vivo
H. influenzae A21518 = experiment: M.I.C., tube dilution; type: cell-based; settings: Haemophilus influenzae, overnight incubation at 37° C., Nutrient Broth
P. aeruginosa A-9843A [3] = experiment: M.I.C., tube dilution; type: cell-based; settings: Pseudomonas aeruginosa, A9843A, overnight incubation at 37° C., Nutrient Broth
S. faecalis A-20688 = experiment: Protective effect in intramuscular treatment of infected mice; type: in vivo; settings: Enterococcus faecalis, A20688, im, i.m. 0 and 2 h postinfection, challenge 2.3 × 10^8 organisms, * = historical data, read-out: PD50/Treatment
H. influenzae A-9833 = experiment: M.I.C., tube dilution; type: cell-based; settings: Haemophilus influenzae, A9833; overnight incubation at 37° C., Nutrient Broth
S. aureus A-9606 = experiment: Protective effect in intramuscular treatment of infected mice; type: in vivo; settings: Staphylococcus aureus, read-out: PD50/treatment
Experimental: (§1) The PD50 (dose in mg/kg required to give protection to 50% of the infected mice) is indicated.
with drugs 0 and 2 hours postinfection.
(§2) The PD50 (dose in mg/kg) required to give protection to 50% of the infected mice is indicated.

[4] = Blood levels in mice after intramuscular administration;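 further: compounds dissolved in 0.1 M phosphate buffer at pH 7, data from one experiment using four mice for each compound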
From the text: Compounds were solubilized in 0.1 M phosphate buffer pH 7.
a single test; 4 mice used per compound.
Compounds were solubilized in 0.1 M phosphate buffer, pH 7.
on a single test; 4 mice per compound.

P. vulgaris A21559 = experiment: M.I.C., tube dilution; type: cell-based; settings: Proteus vulgaris, A21559, overnight incubation at 37° C., Nutrient Broth; read-out: MIC
P. aeruginosa A21213 = experiment: M.I.C., tube dilution; type: cell-based; settings: Pseudomonas aeruginosa, A21213, overnight incubation at 37° C., Nutrient Broth; read-out: MIC
B. fragilis A22863 = experiment: M.I.C., tube dilution; type: cell-based; settings: Bacteroides fragilis, overnight incubation at 37° C., Nutrient Broth
S. aureus A-9537 = experiment: M.I.C., tube dilution; type: cell-based; settings: Staphylococcus aureus
P. morganii A15153 = experiment: M.I.C., tube dilution; type: cell-based; settings: Morganella morganii, A15153
B. fragilis A22053 = experiment: M.I.C., tube dilution; type: cell-based; settings: Bacteroides fragilis, overnight incubation at 37° C., Nutrient Broth
P. aeruginosa A-9843a [5] = experiment: animal or person; type: in vivo, mice; settings: Pseudomonas aeruginosa, A9843A, im
Experimental: as §1
with drugs 0 and 2 hours postinfection.
as §2

P. mirabilis A-9900 [6] = experiment: Protective effect in intramuscular treatment of infected mice; type: in vivo; settings: Proteus mirabilis
Experimental: as §1
with drugs 0 and 2 hours postinfection.
as §2

E. coli A20341-1 = experiment: M.I.C., tube dilution; type: cell-based; settings: Escherichia coli, A203411; 10^-4; read-out: MIC
E. coli A15119 = experiment: M.I.C., tube dilution; type: cell-based; settings: Escherichia coli, A15119, 10^-4 dil.
E. coli A-15119 = experiment: Protective effect in intramuscular treatment of infected mice; type: in vivo; settings: Escherichia coli
P. aeruginosa A-20481 = experiment: as above; type: in vivo; settings: Pseudomonas aeruginosa, A20481, im, i.m. 0 and 2 h postinfection, challenge 5.4 × 10^4 organisms, * = historical data, read-out: PD50/Treatment
in vivo = settings: mouse
K. pneumoniae A-9664 = experiment: M.I.C., tube dilution; type: cell-based; settings: Klebsiella pneumoniae, A9664, overnight incubation at 37° C., Nutrient Broth; read-out: MIC
[7] = test system: S. aureus A15097 (Meth-res.); experiment: M.I.C., tube dilution; type: cell-based; settings: Staphylococcus aureus, overnight incubation at 37° C.
P. mirabilis A-9900 [8] = experiment: M.I.C., tube dilution; type: cell-based; settings: Proteus mirabilis, A9900, overnight incubation at 37° C., Nutrient Broth; read-out: MIC
P. aeruginosa A24081 = experiment: Protective effect in intramuscular treatment of infected mice; type: in vivo; settings: Pseudomonas aeruginosa, A24081, im, read-out: PD50/treatment
From the text: as §2

K. pneumoniae A9664 = experiment: as above; type: in vivo; settings: Klebsiella pneumoniae, im, K. pneumoniae A9664, read-out: PD50/treatment
From the text: as §2

K. pneumoniae A20468 = experiment: M.I.C., tube dilution; type: cell-based; settings: Klebsiella pneumoniae, A20468, overnight incubation at 37° C., Nutrient Broth; read-out: MIC
E. cloacae A-9659 = experiment: M.I.C., tube dilution; type: cell-based; settings: Enterobacter cloacae, A9659; overnight incubation at 37° C., Nutrient Broth; read-out: MIC
S. marcescens A20019 = experiment: M.I.C., tube dilution; type: cell-based; settings: Serratia marcescens, A20019; overnight incubation at 37° C., Nutrient Broth; read-out: MIC
E. cloacae A-9656 = experiment: M.I.C., tube dilution; type: cell-based; settings: Enterobacter cloacae, A9656, overnight incubation at 37° C., Nutrient Broth; read-out: MIC
S. pyogenes A-9604 = experiment: M.I.C., tube dilution; type: cell-based; settings: Streptococcus pyogenes, A9604; overnight incubation at 37° C., Nutrient Broth; read-out: MIC
B. fragilis A22696 = experiment: M.I.C., tube dilution; type: cell-based; settings: Bacteroides fragilis, overnight incubation at 37° C., Nutrient Broth
P. rettgeri A22424 = experiment: M.I.C., tube dilution; type: cell-based; settings: Providencia rettgeri, A22424; overnight incubation at 37° C., Nutrient Broth; read-out: MIC

SMILES: C[C@@H](O)[C@H]1C(=O)N2C(C(=O)[O-])=C(SCc3cc[n+](C)cc3)C[C@H]12 [Example 1, 1-Methyl-4-[2-carboxy-6α-[1(R)-hydroxyethyl]-7-oxo-1-azabicyclo[3.2.0]hept-2-en-3-thiomethyl]pyridinium hydroxide inner salt]
- dose excreted at 3 h ([1]; 0-3 hours): 26.1%
- dose excreted at 24 h ([1]; 0-24 hours): 26.7 ± 6.7%
- dose excreted at 6 h ([1]; 3-6 hours): 0.5%
- dose excreted at 24 h ([1]; 6-24 hours): 0.1%
- MIC (B. fragilis A22862): 0.03 µg/mL
- ED50 (P. aeruginosa A-20599): 0.7 mg/kg
- MIC (S. faecalis A20688): 0.5 µg/mL
- LD50 [2]: 14 mg/kg
- MIC (H. influenzae A21518): 16 µg/mL
- MIC (P. aeruginosa A-9843A [3]): 4 µg/mL
- ED50 (S. faecalis A-20688): 3.3 mg/kg
- MIC (H. influenzae A-9833): 16 µg/mL
- ED50 (S. aureus A-9606; A9606, im): 0.09 mg/kg
- AUC ([4]; mice, 20 mg/kg i.m. (table 9)): 6300 ng·h/mL
- T1/2 ([4]; mice, 20 mg/kg i.m. (table 9)): 10 min
- AUC ([4]; mouse, blood, im, 20 mg/kg): 6300 ng·h/mL
- Cmax ([4]; mouse, blood, im, 20 mg/kg): 14000 ng/mL
- half-life ([4]; mouse, in vivo, im, 20 mg/kg): 10 min
- MIC (P. vulgaris A21559): 0.13 µg/mL
- MIC (P. aeruginosa A21213): 1 µg/mL
- MIC (B. fragilis A22863): 0.03 µg/mL
- MIC (S. aureus A-9537; A9537, overnight incubation at 37° C., Nutrient Broth): 0.13 µg/mL
- MIC (S. aureus A-9537; A9537, +50% serum): 0.03 µg/mL
- MIC (P. morganii A15153): 0.13 µg/mL
- MIC (B. fragilis A22053): 0.03 µg/mL
- ED50 (P. aeruginosa A-9843a [5]; mice, i.m. 0 and 2 h postinfection, challenge 5.5 × 10^4 organisms, * = historical data, read-out: PD50/Treatment): 0.3 mg/kg
- ED50 (P. mirabilis A-9900 [6]; A9900, im, read-out: PD50/Treatment): 3.3 mg/kg
- MIC (E. coli A20341-1): 0.03 µg/mL
- MIC (E. coli A15119): 0.06 µg/mL
- ED50 (E. coli A-15119; A15119, im, 3.5 h, read-out: PD50/Treatment): 0.6 mg/kg
- ED50 (P. aeruginosa A-20481): 0.63 mg/kg
- NOAEL (in vivo): 5 mg/kg

SMILES: C[C@@H](O)[C@H]1C(=O)N2C(C(=O)[O-])=C(SCc3cccc[n+]3C)C[C@H]12 [Example 4, 3-(N-Methylpyridine-2-yl-methanethio)-6α-[1-(R)-hydroxyethyl]-7-oxo-1-azabicyclo(3.2.0)hept-2-ene-2-carboxylate]
- MIC (B. fragilis A22862): 0.06 µg/mL (≈ 0.179 µM)
- MIC (K. pneumoniae A-9664): 0.03 µg/mL (≈ 0.0897 µM)
- MIC [7]: 4 µg/mL (≈ 12 µM)
- MIC (S. faecalis A20688): 0.5 µg/mL (≈ 1.5 µM)
- MIC (P. mirabilis A-9900 [8]): 0.06 µg/mL (≈ 0.179 µM)
- ED50 (P. aeruginosa A24081): 0.2 mg/kg
- ED50 (K. pneumoniae A9664): 3 mg/kg
- MIC (H. influenzae A21518): 2 µg/mL (≈ 5.98 µM)
- MIC (H. influenzae A-9833): 2 µg/mL (≈ 5.98 µM)
- ED50 (S. aureus A-9606; im, mice, i.m., S. aureus A9606): 0.1 mg/kg
- AUC ([4]; mouse, blood, im, 20 mg/kg): 7700 ng·h/mL
- Cmax ([4]; mouse, blood, im, 20 mg/kg): 15500 ng/mL
- half-life ([4]; mouse, blood, im, 20 mg/kg): 11 min
- MIC (P. vulgaris A21559): 0.016 µg/mL (≈ 0.0478 µM)
- MIC (P. aeruginosa A21213): 0.13 µg/mL (≈ 0.389 µM)
- MIC (S. aureus A-9537; A9537, +50% serum, read-out: MIC): 0.03 µg/mL (≈ 0.0897 µM)
- MIC (K. pneumoniae A20468): 0.03 µg/mL (≈ 0.0897 µM)
- MIC (E. cloacae A-9659): 0.03 µg/mL (≈ 0.0897 µM)
- ED50 (P. aeruginosa A-9843a [5]; in Mus musculus, read-out: PD50/treatment): 0.2 mg/kg
- ED50 (P. mirabilis A-9900 [6]; im, mice, i.m., P. mirabilis A9900, read-out: PD50/treatment): 4 mg/kg
- ED50 (E. coli A-15119; im, mice, i.m., E. coli A15119, read-out: PD50/treatment): 0.4 mg/kg
- MIC (S. marcescens A20019): 0.03 µg/mL (≈ 0.0897 µM)
- MIC (E. cloacae A-9656): 0.06 µg/mL (≈ 0.179 µM)
- MIC (S. pyogenes A-9604): 0.001 µg/mL (≈ 0.00299 µM)
- MIC (B. fragilis A22696): 0.5 µg/mL (≈ 1.5 µM)
- MIC (P. rettgeri A22424): 0.13 µg/mL (≈ 0.389 µM)
